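Step 1: Grow cells in 96-well plates. Step 2: Expose to compound for 48 hours at 5 concentrations. Step 3: Interpolate endpoints linearly; if unreached, use highest concentration. TGI denotes the concentration required for complete inhibition of growth.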
Test system: RXF-631 renal
Assay: growth of human tumour cells (NCI), 48 h

Compound	TGI [µM]
NC(=O)c1cccc([C@@H]2O[C@H](CO)[C@@H](O)[C@H]2O)c1	43.2
CC(=O)C1=CCC2c3[nH]c4ccccc4c3CCN2C1 (stereo not given)	> 100
Cc1cc(N(CCC#N)CCC#N)ccc1C=Nc1ccc(C(=O)NN2C(=O)/C(=C/c3ccc(N(CCC#N)CCC#N)cc3)N=C2c2cc([N+](=O)[O-])ccc2Cl)cc1	> 100
NCc1cc(O)c(O)c(O)c1	> 100
CCC1CN2CCC3(c4ccccc4)CC(C(=O)OC)=CC1C23 (stereo not given)	28.5
